{"source": "patent US6309872A", "about": "“Polypeptides having glucoamylase activity and nucleic acids encoding same” (Novozymes Biotech, Inc, priority 2000, dated 2001)", "key": {"[1]": {"target": "T1, Thielavia terrestris ATCC 20627 glucoamylase, wild type, recombinant (expressed in Aspergillus oryzae), SEQ ID NO:2 (Thermothielavioides terrestris, UniProt G2QUZ8)", "T1 construct": "N-terminus identical to native enzyme", "T1 sequence (G2QUZ8 20-638)": "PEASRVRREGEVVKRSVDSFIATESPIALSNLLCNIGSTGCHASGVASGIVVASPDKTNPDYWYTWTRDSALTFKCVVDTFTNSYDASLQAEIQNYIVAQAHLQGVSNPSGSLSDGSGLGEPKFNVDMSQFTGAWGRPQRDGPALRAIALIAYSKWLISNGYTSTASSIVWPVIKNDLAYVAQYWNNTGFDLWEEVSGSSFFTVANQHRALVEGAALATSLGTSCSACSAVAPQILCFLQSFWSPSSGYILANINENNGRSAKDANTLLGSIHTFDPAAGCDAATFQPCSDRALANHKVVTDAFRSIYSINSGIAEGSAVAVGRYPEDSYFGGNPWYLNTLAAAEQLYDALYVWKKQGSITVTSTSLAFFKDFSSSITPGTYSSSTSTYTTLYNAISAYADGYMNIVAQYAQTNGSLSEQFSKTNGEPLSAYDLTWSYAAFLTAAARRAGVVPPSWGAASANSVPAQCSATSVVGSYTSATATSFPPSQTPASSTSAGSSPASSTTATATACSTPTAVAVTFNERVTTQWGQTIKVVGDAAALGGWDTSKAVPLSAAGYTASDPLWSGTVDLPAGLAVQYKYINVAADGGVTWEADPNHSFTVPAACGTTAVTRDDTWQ", "assay": "Catalytic constants of recombinant Thielavia terrestris glucoamylase, maltotriose hydrolysis (glucose oxidase assay)", "assay_type": "biochemical", "description": "The glucose-releasing activity of glucoamylase (on maltooligosaccharide) was measured using a glucose oxidase assay kit (Sigma Chemical Co., St. Louis, Mo.) according to the manufacturer's instructions. […] To obtain the correct glucoamylase activity, glucoamylase samples were subjected to ultrafiltration and the resulting retentate (glucoamylase enriched) and filtrate (containing no glucoamylase) were assayed by the glucose oxidase kit. The background substrate oxidation was then subtracted from the data obtained for the glucoamylase samples. Another glucoamylase activity assay comprised of glucoamylase hydrolysis on maltose and glucose detection by a Glucose GOD-Perid kit (Boehringer Mannheim, Indianapolis, Ind.) according to the manufacturer's instructions. In this assay, 900 µl of 50 mM sodium acetate, pH 4.3, containing 1% maltose, pre-incubated for 5 minutes at 37° C., was mixed with 20 μl of glucoamylase solution in 50 mM sodium acetate pH 4.3. After a 10 minute incubation, 80 μl of 1 M NaOH was added to inactivate glucoamylase and the mixture was chilled on ice to prevent the non-enzymatic, basic hydrolysis of maltose. A 20 μl volume of the solution was then mixed with 200 μl of GOD-Perid solution. After a 30 minute incubation at room temperature, the absorbance at 650 nm was measured. The Prism program (from GraphPad, San Diego, Calif.) was used to calculate Km and Vmax by non-linear regression. The parameter kcat (mole glucose produced per mole glucoamylase per min) was calculated by kcat ={(Vmax +1.01)/0.30}/[enzyme], where the units were 0.001 Abs /minute for Vmax and μM for [enzyme]. The 124 mM^-1 cm^-1 value, calculated from the amount of tyrosine, phenylalanine, and cysteine as deduced from the DNA sequence, was used for the extinction coefficient of Thielavia terrestris glucoamylase at 280 nm.\nThen 50 μl of Sigma's GO glucose oxidase assay reagent and 25 μl of H2 O were added and the absorption change was monitored at 490 nm.\nThe temperature-activity profile was measured in quadruplicate at 4, 22, 30, 37, 50, 60, 70, and 80° C. […] After 30 minutes, 5 μl Thielavia terrestris glucoamylase stock (0.11 mg/ml) was added and the solution was kept at the same temperature. After 20 minutes, the solutions were chilled (in ice-water) and briefly centrifuged (in 0.7-ml microcentrifuge tubes). Then 25 μl of these solutions were subjected to the glucoamylase assay by mixing with 50 μl of glucose oxidase reagent and 25 μl of H2 O as described above."}, "[2]": {"test_system": "Aspergillus spp K-27 glucoamylase", "settings": "Abe et al., 1990, cited from earlier work"}, "[3]": {"test_system": "Trichoderma reesei glucoamylase", "settings": "Fagerstrom and Kalkkinen, 1995, cited from earlier work"}, "[4]": {"target": "Aspergillus awamori glucoamylase (Aspergillus awamori, UniProt P69327)", "sequence (P69327 25-640)": "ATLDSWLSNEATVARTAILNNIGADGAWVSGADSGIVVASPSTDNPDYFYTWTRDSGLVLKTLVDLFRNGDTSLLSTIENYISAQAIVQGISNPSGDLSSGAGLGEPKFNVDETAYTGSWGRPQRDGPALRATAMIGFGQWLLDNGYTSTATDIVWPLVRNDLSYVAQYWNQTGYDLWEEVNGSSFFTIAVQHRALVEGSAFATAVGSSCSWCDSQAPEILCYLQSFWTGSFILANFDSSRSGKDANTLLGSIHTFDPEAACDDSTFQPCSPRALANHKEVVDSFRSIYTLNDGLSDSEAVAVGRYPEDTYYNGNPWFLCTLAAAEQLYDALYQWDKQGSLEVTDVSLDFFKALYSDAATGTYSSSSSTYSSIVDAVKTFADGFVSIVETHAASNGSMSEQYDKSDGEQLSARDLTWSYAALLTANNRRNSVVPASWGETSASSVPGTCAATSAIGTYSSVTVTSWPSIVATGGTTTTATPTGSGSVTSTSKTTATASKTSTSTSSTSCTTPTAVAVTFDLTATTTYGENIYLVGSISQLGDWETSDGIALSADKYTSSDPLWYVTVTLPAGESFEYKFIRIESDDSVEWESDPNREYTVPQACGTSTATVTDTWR", "settings": "Sierks and Svensson, 1993, cited from earlier work"}}, "data": [{"smiles": "OC[C@H]1O[C@H](O[C@H]2[C@H](O)[C@@H](O)[C@@H](O[C@H]3[C@H](O)[C@@H](O)C(O)O[C@@H]3CO)O[C@@H]2CO)[C@H](O)[C@@H](O)[C@@H]1O", "note": "(stereo partly shown) [maltotriose]", "values": [{"measurement": "Km", "setting": "[1]; at pH 4 from 4° C. to 80° C.", "result": "< 1000", "unit": "µM"}, {"measurement": "kcat", "setting": "[1]; at pH 4 from 40° C. to 70° C.", "result": "> 10^5 /min"}, {"measurement": "kcat", "setting": "[1]; from pH 3 to 7 at 20° C.", "result": "> 10^5 /min"}, {"measurement": "Km", "setting": "[1]; from pH 3 to 11 at 20° C.", "result": "< 1000", "unit": "µM"}, {"measurement": "kcat", "setting": "[2]; maltotriose", "result": 65, "unit": "s⁻¹"}, {"measurement": "Km", "setting": "[2]; read-out: Km for maltotriose", "result": 450, "unit": "µM"}, {"measurement": "kcat", "setting": "[3]; maltotriose", "result": 20, "unit": "s⁻¹"}, {"measurement": "Km", "setting": "[3]; read-out: Km for maltotriose", "result": 500, "unit": "µM"}, {"measurement": "kcat", "setting": "[4]; maltotriose", "result": 61.67, "unit": "s⁻¹"}, {"measurement": "Km", "setting": "[4]; read-out: Km for maltotriose", "result": 730, "unit": "µM"}]}]}
